System: Pythium ultimum, pathogen of cucumber damping-off
Assay: Cucumber damping-off seed treatment test (Test Example 1)
Assay type: in vivo
Settings: cucumber seeds, 18° C., 13 days
From the text: An acetone solution of ethaboxam and an acetone solution of clothianidin were mixed to prepare mixed liquids containing ethaboxam and clothianidin in predetermined concentration. These mixed liquids were adhered on the surface of cucumber (Sagamihanjiro) seeds and allowed to stand still overnight. A plastic pot was filled with sandy soil and the seeds were disseminated on it. Then the seeds were covered with sandy soil which had been mixed with a bran medium on which Pythium ultimum, pathogen of cucumber damping-off, had been allowed to grow. They were irrigated and allowed to grow at 18° C. under humidity for 13 days, and thereafter control effect was checked.
As a comparison, acetone solutions containing ethaboxam in the predetermined concentration and acetone solutions containing clothianidin in the predetermined concentration were prepared and subjected to similar tests.
The incidence of disease was calculated by Equation 1 and the control value was calculated by Equation 2 based on the incidence of disease.
A: Incidence of disease of plant in untreated area
B: Incidence of disease of plant in treated area
E=X+Y−(X×Y)/100 “Equation 2”

| Compound | Actual control value (clothianidin 150 g ai/100 kg-seed alone) | Actual control value (clothianidin 300 g ai/100 kg-seed alone) | Actual control value (ethaboxam 5 g ai/100 kg-seed alone) | Actual control value (ethaboxam 10 g ai/100 kg-seed alone) |
| --- | --- | --- | --- | --- |
| CN/C(=N\[N+](=O)[O-])NCc1cnc(Cl)s1 [clothianidin] | 0.0% | 0.0% |  |  |
| CCNc1nc(CC)c(C(=O)NC(C#N)c2cccs2)s1 (stereo not shown) [Ethaboxam, ethaboxam] |  |  | 60% | 73% |

Reference: patent US8357681B2, “Composition and method for controlling pests” (priority 2008, dated 2013)
